Reference: paper PMC11790949, “A multiplex method for rapidly identifying viral protease inhibitors” (Molecular Systems Biology, 2025)
Read-outs that look alike come from different tables or passages of the source.

Assays:
[1] = target: T1, SARS-CoV-2-3CL (Severe acute respiratory syndrome coronavirus 2, UniProt P0DTD1); assay type: cell-based
[2] = target: HAV-3C (Human hepatitis A virus genotype IB, UniProt P08617); assay type: cell-based
[3] = tested on: BWCoV-SW1-3CL; assay type: cell-based, Beluga whale coronavirus SW1
[4] = target: Bat-CoV-HKU9-3CL (Bat coronavirus HKU9, UniProt P0C6W5); assay type: cell-based
[5] = target: HCoV-229E-3CL (Human coronavirus 229E, UniProt P0C6X1); assay type: cell-based
[6] = target: CV-B3-3C (Coxsackievirus B3, UniProt P03313); assay type: cell-based
[7] = target: MERS-CoV-3CL (Middle East respiratory syndrome-related coronavirus, UniProt K9N7C7); assay type: cell-based
[8] = target: HCoV-HKU1-3CL (Human coronavirus HKU1, UniProt P0C6X2); assay type: cell-based
[9] = target: SARS-CoV-3CL (Severe acute respiratory syndrome coronavirus, UniProt P0C6X7); assay type: cell-based
[10] = tested on: Bat-SV-CoVZC45-3CL; assay type: cell-based, Bat SL-CoVZC45
[11] = target: Bat-CoV-HKU4-3CL (Bat coronavirus HKU4, UniProt P0C6W3); assay type: cell-based
[12] = target: T1, SARS-CoV-2-3CL; experiment: cell-based
[13] = target: HCoV-NL63-3CL (Human coronavirus NL63, UniProt P0C6X5); assay type: cell-based
[14] = tested on: SARS-CoV-2; assay type: cell-based
[15] = target: SARS-CoV-2 3CL protease (Severe acute respiratory syndrome coronavirus 2, UniProt P0DTD1); experiment: Biochemical inhibition of peptide cleavage by purified SARS-CoV-2 3CL protease (fluorogenic)
[16] = target: HIV-2-PR (Human immunodeficiency virus type 2 subtype A, UniProt P04584); assay type: cell-based
[17] = target: HIV-1-PR (Human immunodeficiency virus type 1 group M subtype B, UniProt P04585); assay type: cell-based
[18] = tested on: SV-A-3C; assay type: cell-based, Salivirus
[19] = target: T2, SARS-CoV-PLP (Severe acute respiratory syndrome coronavirus, UniProt P0C6X7); experiment: cell-based
[20] = target: T3, SARS-CoV-2 PLP (Severe acute respiratory syndrome coronavirus 2, UniProt P0DTD1); experiment: biochemical
[21] = target: T3, SARS-CoV-2 PLP; assay type: biochemical
[22] = tested on: SARS-CoV-2; experiment: microbe, parasite or virus in culture; assay type: cell-based; details: Severe acute respiratory syndrome coronavirus 2, 24 h, read-out: A549-C3 (ACE2/TMPRSS2) IC50, inhibition of SARS-CoV-2 viral replication
[23] = target: T4, Bat-SL-CoVZC45-PLP (Bat SARS-like coronavirus, UniProt A0A2R3SV02); assay type: cell-based
[24] = tested on: SARS-CoV-2; experiment: microbe, parasite or virus in culture; assay type: cell-based; details: Severe acute respiratory syndrome coronavirus 2, Huh-7, 24 h, read-out: IC50, inhibition of SARS-CoV-2 viral replication in Huh7 cells
[25] = tested on: LGTV-NS2B-GS-NS3
[26] = tested on: POWV-NS2B-GS-NS3; assay type: cell-based, tick-borne Powassan virus
[27] = target: T2, SARS-CoV-PLP; assay type: cell-based
[28] = target: T4, Bat-SL-CoVZC45-PLP; assay type: cell-based; remark: listed apart in the source
[29] = target: T3, SARS-CoV-2 PLP; assay type: cell-based
[30] = target: T3, SARS-CoV-2 PLP; assay type: cell-based; remark: listed apart in the source
[31] = target: MERS-CoV-PLP (Middle East respiratory syndrome-related coronavirus, UniProt K9N7C7); assay type: cell-based

Compound: CCc1cc(=O)oc2cc(OC(=O)c3ccco3)ccc12 [CB6728297]
- magratio [1]: 0.9863
- magratio [2]: 0.4338
- magratio [3]: 0.3619
- magratio [4]: 0.9832
- magratio [5]: 0.2941
- magratio [6]: 0.2591
- magratio [7]: 0.4038
- magratio [8]: 0.5819
- magratio [9]: 1.394
- magratio [10]: 0.6214
- magratio [11]: 0.5386
- EC50 [12]: 5.6 µM
- magratio [13]: 0.2557

Compound: O=C(Oc1ccc2ccc(=O)oc2c1)c1cccs1 [CB6762077]
- magratio [1]: 0.436
- magratio [2]: 0.356
- magratio [3]: 0.4066
- magratio [4]: 0.9258
- magratio [5]: 0.2867
- magratio [8]: 0.5727
- magratio [9]: 0.6861
- magratio [10]: 0.28
- magratio [11]: 0.7004
- EC50 [12]: 7.7 µM
- magratio [13]: 0.351

Compound: O=C(Oc1ccc2ccc(=O)oc2c1)c1ccco1 [CB6778425]
- magratio [1]: 0.6675
- magratio [2]: 0.5812
- magratio [3]: 0.6941
- magratio [4]: 0.8169
- magratio [5]: 0.4915
- magratio [7]: 0.8027
- magratio [8]: 0.7283
- magratio [9]: 0.5878
- magratio [10]: 0.8357
- magratio [11]: 0.5241
- EC50 [12]: 0.782 µM
- activity within a live virus setting [14]: minimal activity
- magratio [13]: 0.4867
- shift of IC50 upon pre-incubation with SARS-CoV-2 3CL ([15]; addition of substrate at 0 and 20 minutes): shifts to lower IC50s
- IC50 ([15]; biochemical fluorogenic assay, read-out: IC50, purified SARS-CoV-2 3CL protease): 0.062 µM

Compound: Cc1cccc(C)c1OCC(=O)N[C@@H](Cc1ccccc1)[C@@H](O)C[C@H](Cc1ccccc1)NC(=O)[C@H](C(C)C)N1CCCNC1=O [Lopinavir]
- magratio [16]: 0.9971
- magratio [17]: 1.188

Compound: O=C(Oc1cncc(Cl)c1)c1cccs1 [MAC-5576, reference compound]
- magratio [18]: 1.579
- magratio [1]: 0.9818
- magratio [2]: 0.7585
- magratio [3]: 1.841
- magratio [4]: 1.805
- magratio [5]: 1.36
- magratio [7]: 1.133
- magratio [8]: 1.559
- magratio [9]: 2.282
- magratio [10]: 1.703
- magratio [11]: 0.8566
- magratio [13]: 1.688

Compound: CNC(=O)Oc1c(OC)ccnc1C [MAVDA-B-116]
- EC50 [19]: 0.4 to 1.7 µM
- IC50 [20]: 18.1 µM
- trend in IC50 as a function of pre-incubation time with SARS-CoV-2 PLP [21]: downward trend in IC50
- IC50 [22]: 16.6 µM

Compound: CCOc1ccnc(C)c1OC(=O)NC [MAVDA-B-190]
- EC50 [19]: 0.4 to 1.7 µM
- IC50 [20]: 14.2 µM
- trend in IC50 as a function of pre-incubation time with SARS-CoV-2 PLP [21]: downward trend in IC50
- IC50 [22]: > 50 µM

Compound: Cc1ccc(S)cc1.[Pb] [MAVDA-B-191]
- activity in the yeast assay for Bat SL-CoVZC45 PLP [23]: inactive
- activity in the yeast assay for SARS-CoV PLP [19]: inactive

Compound: O=C(c1ccccc1)C(c1ccccc1)(c1ccccc1)c1ccccc1 [MAVDA-B-194]
- activity in the yeast assay for Bat SL-CoVZC45 PLP [23]: inactive
- activity in the yeast assay for SARS-CoV PLP [19]: inactive

Compound: CNCC(N)=O.Cl [MAVDA-B-195]
- activity in the yeast assay for Bat SL-CoVZC45 PLP [23]: inactive
- activity in the yeast assay for SARS-CoV PLP [19]: inactive

Compound: CNC(=O)Oc1c(OCc2ccccc2)ccnc1C [MAVDA-B-201]
- EC50 [19]: 0.4 to 1.7 µM
- IC50 [20]: 9.8 µM
- trend in IC50 as a function of pre-incubation time with SARS-CoV-2 PLP [21]: downward trend in IC50
- IC50 [22]: 41.2 µM

Compound: CNC(=O)Oc1c(OC(C)C)ccnc1C [MAVDA-B-217]
- EC50 [19]: 0.4 to 1.7 µM
- IC50 [20]: 5.8 µM
- trend in IC50 as a function of pre-incubation time with SARS-CoV-2 PLP [21]: downward trend in IC50
- IC50 [22]: 49.8 µM

Compound: CNC(=O)Oc1c(OCC2CCCCC2)ccnc1C [MAVDA-B-219]
- EC50 [19]: 0.4 to 1.7 µM
- IC50 [20]: 3.5 µM
- trend in IC50 as a function of pre-incubation time with SARS-CoV-2 PLP [21]: downward trend in IC50
- IC50 [22]: 14.9 µM
- IC50 [24]: 16.3 µM

Compound: CCOC(=O)C(=O)Cc1nc2ccccc2s1 [NSC38490]
- magratio [7]: 0.2455

Compound: COc1cc(O)c(C(=O)/C=C/c2ccccc2)c(OC)c1 [NSC51351]
- magratio [18]: 0.2675
- magratio [8]: 0.2725

Compound: CCSc1nc(=S)cc(C)[nH]1 [NSC67307]
- magratio [7]: 0.2279

Compound: N#Cc1c(N)nc(N)nc1Nc1ccc(Br)cc1 [NSC71866]
- magratio [18]: 0.2095
- magratio [25]: 0.2846

Compound: Cc1cc2c(cc1C)N(C(=O)CCl)CC(=O)N2 [NSC138389]
- magratio [1]: 0.2809
- magratio [3]: 0.6472
- magratio [8]: 0.303
- magratio [26]: 0.5885
- magratio [25]: 0.3021
- magratio [10]: 0.2787
- magratio [11]: 0.217
- magratio [27]: 0.5699
- magratio [28]: 0.922

Compound: CN(C(=O)c1ccncc1)c1ccccc1 [NSC204976]
- magratio [7]: 0.3045

Compound: S=c1[nH]c2ccccc2n2cccc12 [NSC246415]
- magratio [11]: 0.2265

Compound: CCOC(=O)c1c(NC(=S)NC)sc2c1CCCC2 [NSC280492]
- magratio [11]: 0.288

Compound: CNC(=O)Oc1c(C)[nH]ccc1=O [NSC287495]
- magratio [29]: 0.3486
- response of the SARS-CoV-2 PLP yeast model [30]: relatively weak response
- EC50 [19]: 22.8 µM
- magratio [27]: 0.9749
- magratio [31]: 0.4201
- magratio [28]: 0.8718

Compound: N#CCS(=O)(=O)c1cccc[n+]1[O-] [NSC361056]
- magratio [3]: 0.7101

Compound: NC(N)=NC(=S)Nc1ccc(Cl)cc1 [NSC403374]
- magratio [1]: 0.7395
- magratio [9]: 0.3199
- magratio [10]: 0.2507

Compound: Cc1cc(N(C)C)ccc1N=Nc1ccc2ncccc2c1 [NSC680516]
- magratio [31]: 0.228

Compound: GRL0617 [reference compound]
- response of the SARS-CoV-2 PLP yeast model [30]: blunted response
